Assay [1] relates to syngeneic TC-1 cell tumor. The experiment in a line: Tumor growth response (partial responders), Cbl-b inhibitor plus cancer vaccine, Biological Example 11. It counts as in vivo, C57BL/6 mice. Particulars: significant decrease in tumor volume relative to control mice without Cbl-b inhibitor or vaccine; 10 mice per group. As to the method: In brief, the combination therapy was tested in C57BL/6 mice bearing a syngeneic TC-1 cell tumor. TC-1 cells were derived from primary murine lung cells, which had been transfected with human papillomavirus strain 16 (HPV16) early proteins 6 and 7 (E6 and E7) and an activated human c-Ha-ras oncogene (Lin et al., Cancer Research, 56: 21-26, 1996). Either 2.5×10^4 (first study) or 5.0×10^4 (second study) TC-1 cells (obtained from Johns Hopkins University) were injected subcutaneously into the mid flank of each mouse. Tumors were allowed to grow to 50-100 mm^3 at which time the animals were randomized and treatment was initiated (Day 0). […]
Tumor size was recorded twice a week starting on Day 0 (Day 14 post TC-1 injection) and continued through duration of dosing until humane endpoints were reached between Day 33 and Day 42 (=between Day 47 and Day 56 post TC-1 injection). The level of response was evaluated by comparing tumor growth in the test mice versus the control mice (10 mice per group). In addition, the level of immune activation was assessed by collecting tumors for analysis of tumor infiltrating lymphocytes (TILs) on Day 10 (=Day 24 post TC-1 injection) in test and control mice (6 mice per group). […]

Assay [2] has as its system primary human total T-cells. The experiment in a line: T-cell activation, IL-2 secretion, Biological Example 13. As to conditions: 48 hours, fold change over baseline, Table 8. The format is cell-based.
Assay [3] addresses T1, Cbl-b (Homo sapiens (Human), UniProt Q13191). The experiment in a line: Cbl-b displacement assay (Cbl-b inhibition assay), Biological Example 12. The format is binding. Particulars: 0.5 nM Cbl-b final concentration (High), Table 7; read-out: Cbl-b IC50 (High). How it is done: (§1) Candidate compounds were evaluated for their ability to bind and inhibit Cbl-b, an E3 ubiquitin-protein ligase, as evidenced by their ability to displace a fluorophore-labeled probe bound to Cbl-b.
(§2) The ability of candidate compounds to displace a known inhibitor and thereby inhibit Cbl-b activity was measured by monitoring the interaction of Cbl-b with a fluorophore-labeled probe in the presence of the candidate compound. A truncated variant of Cbl-b (UniProt number Q13191) containing residues 36-427 and an Avitag at its N-terminus was co-expressed with BirA biotin ligase and purified using a standard protocol (see Dou et al., Nature Structural and Molecular Biology 8: 982-987, 2013; Avidity LLC).
Fluorescently-labeled inhibitor probe was synthesized and tagged with BODIPY FL. Cbl-b displacement assays were performed in a 384-well plate at room temperature in a […] by pre-incubating 0.5 nM Cbl-b or 0.125 nM Cbl-b (final concentration, indicated as “High” and “Low,” respectively) in an assay buffer containing 20 mM HEPES pH 7.5, 150 mM NaCl, 0.01% Triton X-100, 0.01% BSA and 0.5 mM TCEP in the presence of a candidate compound in 1% DMSO (final concentration) for one hour. After incubation in the presence of the candidate compound, the plate was incubated for an additional one hour in the presence of an approximate EC40 binding saturation consisting of 150 nM fluorescently-labeled inhibitor probe and 2 nM Streptavidin-Terbium (Cisbio) (final concentrations). Following the one hour incubation, the plates were read for TR-FRET signal at […] using an Envision plate reader (Perkin Elmer).
(§3) The resulting data for the Cbl-b activity assays were analyzed using standard methods to determine the IC50 values for the tested compounds.

Assay [4] deals with primary human total T-cells. The assay is described as follows: T-cell activation, CD25 surface staining, Biological Example 13. The format is cell-based. Particulars: anti-CD3 and anti-CD28 co-stimulation, 48 hours, fold change over baseline, Table 8.
For assay [5], the target named is T1, Cbl-b. The assay is described as follows: Cbl-b displacement assay (Cbl-b inhibition assay), Biological Example 8. It counts as binding. Particulars: 0.5 nM Cbl-b final concentration (High), Table 4; read-out: Cbl-b IC50 (High). How it is done:
as §1, §2
Fluorescently-labeled inhibitor probe was synthesized and tagged with BODIPY FL. Cbl-b displacement assays were performed in a 384-well plate at room temperature in a […] by pre-incubating 0.5 nM Cbl-b or 0.125 nM Cbl-b (final concentration, indicated as “High” and “Low,” respectively) in an assay buffer containing 20 mM HEPES pH 7.5, 150 mM NaCl, 0.01% Triton X-100, 0.01% BSA, and 0.5 mM TCEP in the presence of a candidate compound in 1% DMSO (final concentration) for 1 hour. After incubation in the presence of the candidate compound, the plate was incubated for an additional one hour in the presence of an approximate EC40 binding saturation consisting of 150 nM fluorescently-labeled inhibitor probe and 2 nM Streptavidin-Terbium (Cisbio) (final concentrations). Following the one hour incubation, the plates were read for TR-FRET signal at […] using an Envision plate reader (Perkin Elmer).
as §3

Assay [6] concerns primary human total T-cells. The experiment in a line: T-cell activation, CD25 surface staining, Biological Example 9. It counts as cell-based. As to conditions: anti-CD3 and anti-CD28 co-stimulation, 48 hours, fold change over baseline, Table 5.
Assay [7] relates to primary human total T-cells. The experiment in a line: T-cell activation, IL-2 secretion, Biological Example 9. As to conditions: 48 hours, fold change over baseline, Table 5. It counts as cell-based.
Assay [8] relates to primary human total T-cells. The assay is described as follows: T-cell activation, IL-2 secretion, Biological Example 2. It counts as cell-based. As to conditions: 48 hours, fold change over baseline; for fold induction at 1 µM: 1 μM inhibitor.
For assay [9], the system named is primary human total T-cells. The assay is described as follows: T-cell activation, CD25 surface staining, Biological Example 2. It counts as cell-based. Particulars: 48 hours, fold change over baseline; for fold induction at 1 µM: 1 μM inhibitor.
Assay [10] deals with T1, Cbl-b. The assay is described as follows: Cbl-b displacement assay (Cbl-b inhibition assay), Biological Example 1. It counts as binding. The essentials:
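Probe displacement read as TR-FRET (520/620 nm) after 1 h with 2 nM streptavidin-terbium and 150 nM BODIPY FL-labelled inhibitor probe, about EC40. Before that, compound in 1% DMSO sat 1 h at room temperature with N-Avitag biotinylated Cbl-b 36–427, 0.5 nM (High) or 0.125 nM (Low), in pH 7.5 HEPES buffer.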

Where [11] appears, read: anti-CD3 and anti-CD28 co-stimulation, 0.3 μM inhibitor.
The mark [12] stands for this setting: anti-CD3 and anti-CD28 co-stimulation, 1 μM inhibitor.
[13] abbreviates: anti-CD3 stimulation alone, 1 μM inhibitor.
Where [14] appears, read: anti-CD3 stimulation alone, 3 μM inhibitor.

Consider two compounds from patent US11530229B2, “Cyano cyclobutyl compounds for CBL-B inhibition and uses thereof” (Nurix Therapeutics, Inc., priority 2019, dated 2022).

The structures appear in SMILES notation.

T1 sequence (Q13191 36-427): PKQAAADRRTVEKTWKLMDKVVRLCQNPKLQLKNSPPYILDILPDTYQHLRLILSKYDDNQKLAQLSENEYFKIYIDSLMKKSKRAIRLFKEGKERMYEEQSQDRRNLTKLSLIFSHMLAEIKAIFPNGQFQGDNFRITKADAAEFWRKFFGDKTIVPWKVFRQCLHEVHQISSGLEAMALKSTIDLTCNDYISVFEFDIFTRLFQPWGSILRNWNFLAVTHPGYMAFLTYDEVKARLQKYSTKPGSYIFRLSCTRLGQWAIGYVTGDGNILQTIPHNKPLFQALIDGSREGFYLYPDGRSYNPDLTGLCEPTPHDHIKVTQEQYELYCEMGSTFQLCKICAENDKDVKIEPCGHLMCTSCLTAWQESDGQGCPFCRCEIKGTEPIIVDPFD

Regarding `Cc1cc(C(=O)Nc2cccc(C3(Cc4nncn4C)COC3)c2)nc(C2CC2)n1` [Compound 60], in assay [1], the partial responders was 0/10.

What is called IC50 is the concentration at which inhibition is half-maximal. On to `Cc1cc(C(=O)Nc2cccc([C@]3(Cc4nncn4C)C[C@@H](C#N)C3)c2)nc(C2CC2)n1` [Compound 1, N-(3-((1r,3r)-3-cyano-1-((4-methyl-4H-1,2,4-triazol-3-yl)methyl)cyclobutyl)phenyl)-2-cyclopropyl-6-methylpyrimidine-4-carboxamide], for which the entries for the “IL-2 secretion CD3/CD28 0.3 μM” value in assay [2] (setting [11]) and in assay [7] (setting [11]) were “C (C indicates ≤10 fold)” and “C (C indicates <10 fold)”, respectively. Besides, the “IL-2 secretion CD3/CD28 1 μM” value in assay [2] (setting [12]) is “B (B indicates 11-15 fold)”; in assay [7] (setting [12]) it was “B (B indicates 10-15 fold)”. Also, the “IL-2 secretion CD3 1 μM” value in [2] (setting [13]) and in [7] (setting [13]) was “B (B indicates 0.34-0.66 fold)” each time. The “IL-2 secretion CD3 3 μM” value in [2] (setting [14]) and in assay [7] (setting [14]) was “B (B indicates 0.34-0.66 fold)” each time. In addition, the IC50 at Cbl-b [3] was 1 to 5 nM; at Cbl-b [5], 1 to 5 nM; on Cbl-b [10] (0.5 nM Cbl-b final concentration (High), read-out: Cbl-b activity IC50 (High)), 2 to 5 nM; at Cbl-b [10] (read-out: IC50 values in the Cbl-b inhibition assay of Biological Example 1), 2 to 5 nM. Besides, the “CD25 staining CD3/CD28 0.3 μM” value in assay [4] (0.3 μM inhibitor) and in assay [6] (0.3 μM inhibitor) was “B (B indicates 1.25-1.39 fold)” throughout. For the same compound, the “CD25 staining CD3/CD28 1 μM” value in [4] (1 μM inhibitor) and in [6] (1 μM inhibitor) was “B (B indicates 1.25-1.39 fold)” each time. The fold induction at 0.3 µM was not above 15 in [8] (setting [11]) and 1.24 to 1.39 in [9] (setting [11]). Moreover, the fold induction at 1 µM in [8] (anti-CD3 and anti-CD28 co-stimulation, read-out: IL-2 secretion CD3/CD28 1 μM) is not above 15; in assay [8] (anti-CD3 stimulation alone, read-out: IL-2 secretion CD3 1 μM), less than 0.4; in [9] (anti-CD3 and anti-CD28 co-stimulation, read-out: CD25 staining CD3/CD28 1 μM), 1.24 to 1.39; in assay [9] (anti-CD3 stimulation alone, read-out: CD25 staining CD3 1 μM), 1 to 1.15. The fold induction at 3 µM in [8] (setting [14]) was less than 0.4; in assay [9] (setting [14]) it was 1 to 1.15.
